From patent US20090325959A1 (priority 2008, published 2009)

Key:
[1] = biological target: T1, ROCK1 (Homo sapiens, UniProt Q13464); test: Rho kinase inhibition assay (IMAP fluorescence polarization), ROCK1; assay type: biochemical; conditions: Avg, 10 μM ATP;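 note: kinase reaction run 60 min at room temperature, then phosphorylated substrate captured on IMAP beads for 30 min, with fluorescence polarization read in mP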
T1 construct: purchased Upstate/Chemicon 14-601
Procedure: (§1) Following the pre-incubation, 10 μM ATP was added to initiate the reaction. After 60 minutes at room temperature, Molecular Devices IMAP™ binding solution was added to bind phosphorylated substrate. After 30 minutes of incubation in the presence of the IMAP™ beads, the fluorescence polarization was read and the ratio was reported as mP. IC50 values for compounds and EC50 values for ATP were calculated using the Prism software from Graphpad.

[2] = biological target: T2, ROCK2 (Homo sapiens, UniProt O75116); test: Rho kinase inhibition assay (IMAP fluorescence polarization), ROCK2; assay type: biochemical; conditions: 10 μM ATP; read-out: ROCK2 Ki, Avg;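 note: kinase reaction started with 10 µM ATP and run 60 min at room temperature, then phosphorylated substrate captured on IMAP beads for 30 min and fluorescence polarization read in mP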
T2 construct: purchased Upstate/Chemicon 14-451
T2 sequence (O75116 11-552 limits assumed): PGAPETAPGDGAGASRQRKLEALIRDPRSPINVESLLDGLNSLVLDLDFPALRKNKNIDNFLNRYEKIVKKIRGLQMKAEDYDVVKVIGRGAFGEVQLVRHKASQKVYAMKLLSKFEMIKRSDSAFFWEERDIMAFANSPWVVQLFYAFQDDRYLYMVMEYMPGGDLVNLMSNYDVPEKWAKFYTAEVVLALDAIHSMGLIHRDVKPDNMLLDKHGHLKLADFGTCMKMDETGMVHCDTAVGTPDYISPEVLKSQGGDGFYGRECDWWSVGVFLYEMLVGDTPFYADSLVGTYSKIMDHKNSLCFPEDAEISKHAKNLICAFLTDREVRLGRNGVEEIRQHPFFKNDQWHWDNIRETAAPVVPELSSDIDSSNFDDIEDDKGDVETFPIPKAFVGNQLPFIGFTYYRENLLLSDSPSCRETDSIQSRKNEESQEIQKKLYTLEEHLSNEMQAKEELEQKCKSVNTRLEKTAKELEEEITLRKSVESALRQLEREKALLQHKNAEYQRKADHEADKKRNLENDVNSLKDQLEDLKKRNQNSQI
Procedure: as §1

T1 sequence (Q13464 17-535 limits assumed): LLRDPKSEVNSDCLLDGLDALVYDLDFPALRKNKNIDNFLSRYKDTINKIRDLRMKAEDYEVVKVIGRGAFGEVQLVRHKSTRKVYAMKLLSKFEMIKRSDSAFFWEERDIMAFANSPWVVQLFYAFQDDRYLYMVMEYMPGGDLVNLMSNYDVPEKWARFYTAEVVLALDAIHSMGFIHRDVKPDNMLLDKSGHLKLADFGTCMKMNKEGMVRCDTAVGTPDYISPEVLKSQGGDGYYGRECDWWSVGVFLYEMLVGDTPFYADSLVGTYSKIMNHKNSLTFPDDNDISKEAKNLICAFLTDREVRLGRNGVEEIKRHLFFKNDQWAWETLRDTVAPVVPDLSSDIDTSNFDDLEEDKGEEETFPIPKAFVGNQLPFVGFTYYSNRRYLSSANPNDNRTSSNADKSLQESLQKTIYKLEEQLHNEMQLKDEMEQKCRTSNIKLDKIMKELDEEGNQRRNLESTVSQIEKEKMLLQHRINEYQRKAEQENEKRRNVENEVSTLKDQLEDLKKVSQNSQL

| SMILES | Ki [1] | Ki [2] |
| --- | --- | --- |
| c1cc(CN2CCC[C@@H](Nc3ccc4[nH]ncc4c3)C2)cc(C2CC2)c1 [Compound 1.202, (R)-N-(1-(3-cyclopropylbenzyl)piperidin-3-yl)-1H-indazol-5-amine] | 0.203 µM | 0.033 µM |
| CCOc1cccc(CN2CCC[C@@H](Nc3ccc4[nH]ncc4c3)C2)c1 [Compound 1.203, (R)-N-(1-(3-ethoxybenzyl)piperidin-3-yl)-1H-indazol-5-amine] | 0.329 µM | 0.0416 µM |
| CS(=O)(=O)c1ccc(CN2CCC[C@@H](Nc3ccc4[nH]ncc4c3)C2)cc1 [Compound 1.205, (R)-N-(1-(4-(methylsulfonyl)benzyl)piperidin-3-yl)-1H-indazol-5-amine] | 0.498 µM | 0.0464 µM |
| CN(c1cccc(CN2CCC[C@@H](Nc3ccc4[nH]ncc4c3)C2)c1)S(C)(=O)=O [Compound 1.207, (R)-N-(3-((3-(1H-indazol-5-ylamino)piperidin-1-yl)methyl)phenyl)-N-methylmethanesulfonamide] | 0.516 µM | 0.0437 µM |
| CCOC(=O)c1ccc(CN2CCC[C@@H](Nc3ccc4[nH]ncc4c3)C2)cc1 [Compound 1.209, (R)-ethyl 4-((3-(1H-indazol-5-ylamino)piperidin-1-yl)methyl)benzoate] | 4.59 µM | 0.47 µM |
| Brc1cccc(CN2CCC[C@@H](Nc3ccc4[nH]ncc4c3)C2)c1 [Compound 1.210, (R)-N-(1-(3-bromobenzyl)piperidin-3-yl)-1H-indazol-5-amine] | 0.0951 µM | 0.0255 µM |
| CC(=O)NCCOc1cccc(CN2CCC[C@@H](Nc3ccc4[nH]ncc4c3)C2)c1 [Compound 1.211, (R)-N-(2-(3-((3-(1H-indazol-5-ylamino)piperidin-1-yl)methyl)phenoxy)ethyl)acetamide] | 0.395 µM | 0.0576 µM |
| CC1(C)OC[C@H](COc2cccc(CN3CCC[C@H](Nc4ccc5[nH]ncc5c4)C3)c2)O1 [Compound 1.214, N-((S)-1-(3-(((S)-2,2-dimethyl-1,3-dioxolan-4-yl)methoxy)benzyl)piperidin-3-yl)-1H-indazol-5-amine] | 0.546 µM | 0.143 µM |
| CCOC(=O)c1ccc(CN2CCC[C@H](Nc3ccc4[nH]ncc4c3)C2)cc1 [Compound 1.216, (S)-ethyl 4-((3-(1H-indazol-5-ylamino)piperidin-1-yl)methyl)benzoate] | 1.89 µM | 0.403 µM |
| CC(=O)NCCOc1cccc(CN2CCC[C@H](Nc3ccc4[nH]ncc4c3)C2)c1 [Compound 1.218, (S)-N-(2-(3-((3-(1H-indazol-5-ylamino)piperidin-1-yl)methyl)phenoxy)ethyl)acetamide] | 0.402 µM | 0.0307 µM |
| NC(=O)c1cccc(CN2CCC[C@@H](Nc3ccc4[nH]ncc4c3)C2)c1 [Compound 1.221, (R)-3-((3-(1H-indazol-5-ylamino)piperidin-1-yl)methyl)benzamide] | 0.264 µM | 0.03 µM |
| CC1(C)OC[C@H](COc2cccc(CN3CCC[C@@H](Nc4ccc5[nH]ncc5c4)C3)c2)O1 [Compound 1.222, N-((R)-1-(3-(((S)-2,2-dimethyl-1,3-dioxolan-4-yl)methoxy)benzyl)piperidin-3-yl)-1H-indazol-5-amine] | 0.229 µM | 0.0755 µM |
| O=C(OCCOc1cccc(CN2CCC[C@H](Nc3ccc4[nH]ncc4c3)C2)c1)c1ccccc1 [Compound 1.224, (S)-2-(3-((3-(1H-indazol-5-ylamino)piperidin-1-yl)methyl)phenoxy)ethyl benzoate] | 0.487 µM | 0.0775 µM |
| O=C(OCCOc1cccc(CN2CCC[C@@H](Nc3ccc4[nH]ncc4c3)C2)c1)c1ccccc1 [Compound 1.225, (R)-2-(3-((3-(1H-indazol-5-ylamino)piperidin-1-yl)methyl)phenoxy)ethyl benzoate] | 0.605 µM | 0.189 µM |
| OCCOc1ccc(CN2CCC[C@H](Nc3ccc4[nH]ncc4c3)C2)cc1 [Compound 1.228] | 1.88 µM | 0.14 µM |
| OCCCOc1cccc(CN2CCC[C@H](Nc3ccc4[nH]ncc4c3)C2)c1 [Compound 1.230, (S)-3-(3-((3-(1H-indazol-5-ylamino)piperidin-1-yl)methyl)phenoxy)propan-1-ol] | 0.346 µM | 0.0353 µM |
| OCCCOc1cccc(CN2CCC[C@@H](Nc3ccc4[nH]ncc4c3)C2)c1 [Compound 1.231, (R)-3-(3-((3-(1H-indazol-5-ylamino)piperidin-1-yl)methyl)phenoxy)propan-1-ol] | 0.305 µM | 0.0603 µM |
| OCc1ccc(CN2CCC[C@@H](Nc3ccc4[nH]ncc4c3)C2)cc1 [Compound 1.232, (R)-(4-((3-(1H-indazol-5-ylamino)piperidin-1-yl)methyl)phenyl)methanol] | 0.137 µM | 0.0208 µM |
| COc1ccc(CN2CCC[C@H](Nc3ccc4[nH]ncc4c3)C2)cc1NS(C)(=O)=O [Compound 1.234, (S)-N-(5-((3-(1H-indazol-5-ylamino)piperidin-1-yl)methyl)-2-methoxyphenyl)methanesulfonamide] | 1.74 µM | 0.166 µM |
| NCc1cccc(CN2CCC[C@@H](Nc3ccc4[nH]ncc4c3)C2)c1 [Compound 1.235, (R)-N-(1-(3-(aminomethyl)benzyl)piperidin-3-yl)-1H-indazol-5-amine] | 1.39 µM | 0.335 µM |

| SMILES | Ki [1] | Ki [2] |
| --- | --- | --- |
| Cc1ccc(CN2CCC[C@H](Nc3ccc4[nH]ncc4c3)C2)cc1OCC(=O)O [Compound 1.240] | 0.625 µM | 0.0601 µM |
| Cc1ccc(CN2CC[C@@H](Nc3ccc4[nH]ncc4c3)C2)cc1 [Compound 1.242, (R)-N-(1-(4-methylbenzyl)pyrrolidin-3-yl)-1H-indazol-5-amine] | 0.0714 µM | 0.0175 µM |
| FC(F)(F)c1cccc(CN2CC[C@@H](Nc3ccc4[nH]ncc4c3)C2)c1 [Compound 1.243, (R)-N-(1-(3-(trifluoromethyl)benzyl)pyrrolidin-3-yl)-1H-indazol-5-amine] | 0.219 µM | 0.0843 µM |
| CS(=O)(=O)c1ccc(CN2CC[C@@H](Nc3ccc4[nH]ncc4c3)C2)cc1 [Compound 1.244, (R)-N-(1-(4-(methylsulfonyl)benzyl)pyrrolidin-3-yl)-1H-indazol-5-amine] | 0.683 µM | 0.139 µM |
| COc1ccc(CN2CC[C@@H](Nc3ccc4[nH]ncc4c3)C2)cc1 [Compound 1.245, (R)-N-(1-(4-methoxybenzyl)pyrrolidin-3-yl)-1H-indazol-5-amine] | 0.199 µM | 0.0495 µM |
| c1cc(N2CCCC2)ccc1CN1CCC[C@@H](Nc2ccc3[nH]ncc3c2)C1 [Compound 1.248, (R)-N-(1-(4-(pyrrolidin-1-yl)benzyl)piperidin-3-yl)-1H-indazol-5-amine] | 2.35 µM | 0.891 µM |
| c1cc(CN2CCC[C@@H](Nc3ccc4[nH]ncc4c3)C2)cc(-c2ccco2)c1 [Compound 1.250, (R)-N-(1-(3-(furan-2-yl)benzyl)piperidin-3-yl)-1H-indazol-5-amine] | 0.247 µM | 0.0458 µM |
| CC(CN1CCC[C@@H](Nc2ccc3[nH]ncc3c2)C1)c1ccccc1 (stereo partly drawn) [Compound 1.251, N-((3R)-1-(2-phenylpropyl)piperidin-3-yl)-1H-indazol-5-amine] | 0.207 µM | 0.0492 µM |
| Clc1ccc(CN2CC[C@@H](Nc3ccc4[nH]ncc4c3)C2)cc1Cl [Compound 1.254, (R)-N-(1-(3,4-dichlorobenzyl)pyrrolidin-3-yl)-1H-indazol-5-amine] | 0.116 µM | 0.039 µM |
| c1cn(-c2ccc(CN3CCC[C@H](Nc4ccc5[nH]ncc5c4)C3)cc2)cn1 [Compound 1.255] | 3.56 µM | 0.359 µM |
| c1c[nH]c(CN2CCC[C@H](Nc3ccc4[nH]ncc4c3)C2)n1 [Compound 1.256, (S)-N-(1-((1H-imidazol-2-yl)methyl)piperidin-3-yl)-1H-indazol-5-amine] | 0.7 µM | 0.0855 µM |
| Cn1ccnc1CN1CCC[C@H](Nc2ccc3[nH]ncc3c2)C1 [Compound 1.257, (S)-N-(1-((1-methyl-1H-imidazol-2-yl)methyl)piperidin-3-yl)-1H-indazol-5-amine] | 1.27 µM | 0.168 µM |
| c1ccc(Cn2ccnc2CN2CCC[C@@H](Nc3ccc4[nH]ncc4c3)C2)cc1 [Compound 1.263, (R)-N-(1-((1-benzyl-1H-imidazol-2-yl)methyl)piperidin-3-yl)-1H-indazol-5-amine] | 2.13 µM | 0.453 µM |
| OCC1COc2ccc(CN3CCC[C@@H](Nc4ccc5[nH]ncc5c4)C3)cc2O1 (stereo partly drawn) [Compound 1.264, (7-(((R)-3-(1H-indazol-5-ylamino)piperidin-1-yl)methyl)-2,3-dihydrobenzo[b][1,4]dioxin-2-yl)methanol] | 0.494 µM | 0.0594 µM |
| CNC(=O)Nc1cccc(CN2CCC[C@@H](Nc3ccc4[nH]ncc4c3)C2)c1 [Compound 1.265, (R)-1-(3-((3-(1H-indazol-5-ylamino)piperidin-1-yl)methyl)phenyl)-3-methylurea] | 0.162 µM | 0.0216 µM |
| O=C(Nc1cccc(CN2CCC[C@@H](Nc3ccc4[nH]ncc4c3)C2)c1)N1CCCC1 [Compound 1.266, (R)-N-(3-((3-(1H-indazol-5-ylamino)piperidin-1-yl)methyl)phenyl)pyrrolidine-1-carboxamide] | 0.0538 µM | 0.0171 µM |
| CCN(CC)C(=O)Nc1cccc(CN2CCC[C@@H](Nc3ccc4[nH]ncc4c3)C2)c1 [Compound 1.267, (R)-3-(3-((3-(1H-indazol-5-ylamino)piperidin-1-yl)methyl)phenyl)-1,1-diethylurea] | 0.0988 µM | 0.0239 µM |
| OCCn1ccc2cc(CN3CCC[C@@H](Nc4ccc5[nH]ncc5c4)C3)ccc21 [Compound 1.268, (R)-2-(5-((3-(1H-indazol-5-ylamino)piperidin-1-yl)methyl)-1H-indol-1-yl)ethanol] | 0.404 µM | 0.0407 µM |
| OCCn1ccc2cc(CN3CCC[C@H](Nc4ccc5[nH]ncc5c4)C3)ccc21 [Compound 1.269, (S)-2-(5-((3-(1H-indazol-5-ylamino)piperidin-1-yl)methyl)-1H-indol-1-yl)ethanol] | 0.239 µM | 0.0228 µM |
